In brackets after ≈: the same amount, converted by molar mass. Positions of bridges follow the written chain, without caps; N, C: chain ends. Residues, ends and D or L forms follow the SMILES beside them. No end group written: not given here.
Assays:
biotinylated HA proteins = assay type: physicochemical, influenza
PR8 influenza virus = assay type: cell-based, influenza virus (Madin-Darby Canine Kidney Epithelial Cells)
CA09 influenza virus = assay type: cell-based, influenza virus (Madin-Darby Canine Kidney Epithelial Cells)
[1] = test system: A/California/04/09 (H1N1) (CA09); design: species or system BALB/c mice; details: mouse, in vivo
[2] = test system: H1N1 (CA09) influenza virus; design: species or system Ferrets; details: in vivo
[3] = test system: flu virus strains Ca0409 and Ft. Monmout; details: both strains

Molecule | loss of binding activity after high temperature exposure (biotinylated HA proteins) | EC50 fold lower than FI6v3 and HB36.6 on a mass basis (PR8 influenza virus) | EC50 versus FI6v3 and HB36.6 on a molar basis (PR8 influenza virus) | EC50 fold lower than FI6v3 and HB36.6 on a mass basis (CA09 influenza virus) | EC50 versus FI6v3 and HB36.6 on a molar basis (CA09 influenza virus) | dose fold lower on a mass basis than the FI6v3 dose required for equivalent protection [1] [fold] | survival [1] [%] | weight loss [1] [%] | protection ([1]; iv) | changes in temperature [2] | clinical signs of disease [2] | weight loss [2] | EC50 for inhibition of viral replication in vitro (Virus Ft. Monmouth) [ng/mL] | IC50 against flu virus strains Ca0409 and Ft. Monmout [3] [ng/mL] | EC50 for inhibition of viral replication in vitro (Virus Ca0409) [ng/mL]
CC[C@H](C)[C@@H]1NC(=O)[C@H](CCC(=O)O)NC(=O)[C@H](C)NC(=O)[C@H](C)NC(=O)[C@H]([C@@H](C)O)NC(=O)[C@H](CCC(N)=O)NC(=O)[C@@H]2CSSC[C@H](NC(=O)[C@H](CC(N)=O)NC(=O)CNC(=O)[C@H](CC(N)=O)NC(=O)[C@H](CC(=O)O)NC(=O)[C@H](C(C)C)NC(=O)[C@H](CCSC)NC(=O)[C@H]([C@@H](C)CC)NC(=O)[C@H](CCCCN)NC(=O)[C@H](C(C)C)NC(=O)[C@H]([C@@H](C)O)NC(=O)[C@H](Cc3ccc(O)cc3)NC(=O)CNC(=O)[C@H](Cc3ccccc3)NC(=O)[C@H](C)NC(=O)[C@H](CCCNC(=N)N)NC(=O)[C@H](Cc3c[nH]c4ccccc34)NC1=O)C(=O)N[C@@H](CCCNC(=N)N)C(=O)N[C@@H](CC(C)C)C(=O)N[C@@H](Cc1c[nH]cn1)C(=O)N[C@@H](C(C)C)C(=O)N[C@H](C(=O)O)CSSC[C@H](N)C(=O)N[C@@H]([C@@H](C)CC)C(=O)N[C@@H](CCC(=O)O)C(=O)N[C@@H](CCC(N)=O)C(=O)N[C@@H](CO)C(=O)N[C@@H](Cc1ccccc1)C(=O)N[C@@H]([C@@H](C)O)C(=O)N[C@@H]([C@@H](C)O)C(=O)N[C@@H](CC(C)C)C(=O)N[C@@H](Cc1ccccc1)C(=O)N[C@@H](C)C(=O)N2 [HB1.6928.2.3] (H-CIEQSFTTLFACQTAAEIWRAFGYTVKIMVDNGNCRLHVC-OH; disulfide 1-40, 12-35; N-terminus and C-terminus assumed) | no detectable loss of binding | more than 100 fold | comparable | more than 100 fold | comparable | 100 | 100 | < 10 | little protection | no significant changes in temperature | minimal clinical signs of disease | no significant weight loss | 0.02 | ~0.02 (≈ 0.00441 nM) | 
CC[C@H](C)[C@@H]1NC(=O)[C@H](CCC(=O)O)NC(=O)[C@H](C)NC(=O)[C@H](C)NC(=O)[C@H]([C@@H](C)O)NC(=O)[C@H](CCC(N)=O)NC(=O)[C@H](C)NC(=O)[C@H](C)NC(=O)[C@H](Cc2ccccc2)NC(=O)[C@H](CC(C)C)NC(=O)[C@H]([C@@H](C)O)NC(=O)[C@H]([C@@H](C)O)NC(=O)[C@H](Cc2ccccc2)NC(=O)[C@H](CO)NC(=O)[C@H](CCC(N)=O)NC(=O)[C@H](CCC(=O)O)NC(=O)[C@H]([C@@H](C)CC)NC(=O)[C@@H](N)CSSC[C@@H](C(=O)O)NC(=O)[C@H](C(C)C)NC(=O)[C@H](Cc2c[nH]cn2)NC(=O)[C@H](CC(C)C)NC(=O)[C@H](CCCNC(=N)N)NC(=O)[C@H](Cc2c[nH]c3ccccc23)NC(=O)[C@H](CC(N)=O)NC(=O)CNC(=O)[C@H](CC(N)=O)NC(=O)[C@H](CC(=O)O)NC(=O)[C@H](CCC(N)=O)NC(=O)[C@H](CCSC)NC(=O)[C@H]([C@@H](C)CC)NC(=O)[C@H](CCCCN)NC(=O)[C@H](C(C)C)NC(=O)[C@H]([C@@H](C)O)NC(=O)[C@H](Cc2ccc(O)cc2)NC(=O)CNC(=O)[C@H](Cc2ccccc2)NC(=O)[C@H](C)NC(=O)[C@H](CCCNC(=N)N)NC(=O)[C@H](Cc2c[nH]c3ccccc23)NC1=O [AQW CS15989] (H-CIEQSFTTLFAAQTAAEIWRAFGYTVKIMQDNGNWRLHVC-OH; disulfide 1-40; N-terminus and C-terminus assumed) |  |  |  |  |  |  |  |  |  |  |  |  | 10 |  | 10
TIEQSFTTLFAAQTAAEIWRAFGYTVKIMQDNGNWRLHVT [TAWQT CS15990] |  |  |  |  |  |  |  |  |  |  |  |  | 2 |  | 20
